Measured values published in patent US20120321685A1, “COMPOSITIONS CONTAINING OILS HAVING A SPECIFIC GRAVITY HIGHER THAN THE SPECIFIC GRAVITY OF WATER” (SOL-GEL TECHNOLOGIES LTD., priority 2001, published 2012).

Columns and labels:
[1] = cited from earlier work
[2] = Solubility of benzoyl peroxide in Finsolve PG-22; type: physicochemical
Protocol: The solubility of benzoyl peroxide in dipropylene glycol dibenzoate (Finsolv PG 22) was measured in a method similar to Example 1. Benzoyl peroxide concentration was determined by titration according to USP. The solubility of benzoyl peroxide in Finsolve PG-22 is 6 wt. %.

[3] = Solubility of BMDBM and other solid sunscreen actives in different solvents; type: physicochemical; conditions: in Dipropylene glycol Dibenzoate (Finetex Finsolv PG-22), 25° C.
Protocol: The solubility of commonly used sunscreen active ingredients was tested by heating a solution of below-mentioned solvents or their mixture to 50° C. under stirring. Access amount of the sunscreen active was added. After thorough mixing to dissolve the solid, the solution was allowed to cool to 25° C. over night in the water bath under constant oscillation and the access active precipitated. The solution was filtered using 0.2 μm PTFE filter, and the concentration of BMDBM was determined by HPLC equipped with UV diode array detector against standard solution of BMDBM. For the other sunscreen actives, the concentration of the active was determined spectroscopically against standard solution of the active. Table 1 lists the solubility values obtained for BMDBM and other sunscreen actives in different commercially available solvents.

SMILES	Solvent specific gravity, acc. to D25/25 [1]	other results
CCOC(=O)c1ccccc1O [Ethyl salicylate]	1.126-1.130	
CC(COC(=O)c1ccccc1)OCC(C)OC(=O)c1ccccc1 (stereo not drawn) [Finsolv PG-22, Dipropylene glycol Dibenzoate]	1.12	
O=C(OOC(=O)c1ccccc1)c1ccccc1 [benzoyl peroxide]		Solvent quality of dipropylene glycol dibenzoate for BPO ([2]; in dipropylene glycol dibenzoate): good solvent; Solubility of benzoyl peroxide in Finsolve PG-22 ([2]; in dipropylene glycol dibenzoate (Finsolv PG 22), method similar to Example 1, titration according to USP): 6 wt. %
CCC(=O)OCc1ccccc1 [Benzyl propionate]	1.028-1.032	
CC(COC(=O)c1ccccc1)OCC(C)OC(=O)c1ccccc1 (stereo not drawn) [Dermol DPG-2B, Dipropylene glycol Dibenzoate]	1.117	
CCOC(=O)c1ccccc1 [Ethyl benzoate]	1.043-1.046	
COc1ccc(C(=O)c2ccccc2)c(O)c1 [Benzophenone-3]		Solubility, concentration [3]: 26.6 wt %
Cc1ccc(/C=C2/C(=O)C3(C)CCC2C3(C)C)cc1 (stereo not drawn) [Methyl benzyledene camphor]		Solubility, concentration [3]: 30.16 wt %
